Drawing on patent US8501781B2 (priority 2009, dated 2013), this text covers chromatographic logP and logP for 25 compounds.

The data set is described as follows: logP by HPLC (EEC Directive 79/831 Annex V.A8). It counts as physicochemical.
The mark [1] stands for this setting: [b] LC-MS, acidic range, pH 2.7, 0.1% aqueous formic acid and acetonitrile.
[2] abbreviates: [c] LC-MS, neutral range, pH 7.8, 0.001 molar aqueous ammonium bicarbonate and acetonitrile.

Molecules are shown by their SMILES. Marks after values point to notes of the source that are not given here.

For `Cc1ccc(C)c(NC(=O)N2CCC(c3nc(C(=O)OC4CCCCC4)cs3)CC2)c1` [Example 59, Cyclohexyl 2-{1-[(2,5-dimethylphenyl)carbamoyl]piperidin-4-yl}-1,3-thiazole-4-carboxylate], the chromatographic logP (pH 2.7, given in the preparation examples, read-out: log P (pH 2.7)) was determined as 3.82. The logP is a log measure of how a compound divides between an organic and an aqueous phase. A higher logP goes with higher lipophilicity. On to `O=C(OC1CCCCC1)c1csc(C2CCN(C(=O)C(=O)c3ccco3)CC2)n1` [Example 60], for which, under setting [1], the logP was 3.07^[b]. Same read-out and setting: then `O=C(OC1CCCCC1)c1csc(C2CCN(C(=O)Nc3cc(C(F)(F)F)ccc3Cl)CC2)n1` [Example 61], with 4.76^[b]. On to `Cc1ccc(Cl)c(NC(=O)N2CCC(c3nc(C(=O)OC4CCCCC4)cs3)CC2)c1` [Example 62], for which the log partition coefficient (logP) under setting [1] is 4.30^[b]. For `Cc1ccc(C)c(NC(=S)N2CCC(c3nc(C(=O)OC4CCCCC4)cs3)CC2)c1` [Example 63], under setting [1], the log partition coefficient (logP) is 4.17^[b].

In the case of `Cc1ccc(F)c(NC(=O)N2CCC(c3nc(C(=O)OC4CCCCC4)cs3)CC2)c1` [Example 64], under setting [1], the logP is 3.81^[b].

As to `Cc1cc(C)cc(CC(=O)N2CCC(c3nc(C(=O)OC4CCCCC4)cs3)CC2)c1` [Example 65], the logP under setting [1] is reported as 4.32 and the logP under setting [2] stood at 4.34. Consider `Cc1ccc(CC(=O)N2CCC(c3nc(C(=O)OC4CCCCC4)cs3)CC2)c(C)c1` [Example 66], for which the log partition coefficient (logP) is 4.3 under setting [1] and 4.33 under setting [2]. Consider `O=C(OC1CCCCC1)c1csc(C2CCN(C(=S)Nc3cc(F)ccc3F)CC2)n1` [Example 67], for which, under setting [1], the logP was 3.86^[b]. On to `O=C(OC1CCCc2ccccc21)c1csc(C2(F)CCN(C(=O)Cn3nc(C(F)F)cc3C(F)F)CC2)n1` (centres unmarked) [Example 68], for which the log partition coefficient (logP) under setting [1] is 4.12^[b]. As for `O=C(OC1CCCCC1)c1csc(C2(F)CCN(C(=O)Cn3nc(C(F)F)cc3C(F)F)CC2)n1` [Example 69], the logP under setting [1] is 3.91^[b]. On the same count and under the same terms, then `COc1ccc(C)cc1NC(=O)N1CCC(c2nc(C(=O)OC3CCCCC3)cs2)CC1` [Example 71], with 4.18^[b]; and `Cc1ccc(Cl)cc1NC(=O)N1CCC(c2nc(C(=O)OC3CCCCC3)cs2)CC1` [Example 72], with 4.10^[b]. With `Cc1noc(C)c1NC(=S)N1CCC(c2nc(C(=O)OC3CCCCC3)cs2)CC1` [Example 73], the log partition coefficient (logP) under setting [1] is 3.18^[b]. `Cc1ccc(F)cc1NC(=O)N1CCC(c2nc(C(=O)OC3CCCCC3)cs2)CC1` [Example 74]: the lipophilicity (logP) under setting [1] was 3.74^[b]. Consider `COc1ccc(Cl)cc1NC(=O)N1CCC(c2nc(C(=O)OC3CCCCC3)cs2)CC1` [Example 75], for which the logP under setting [1] was 4.35^[b]. Consider `Cc1noc(C)c1NC(=O)N1CCC(c2nc(C(=O)OC3CCCCC3)cs2)CC1` [Example 76], for which the logP under setting [1] was 2.66^[b]. In the case of `COc1ccc(OC)c(NC(=O)N2CCC(c3nc(C(=O)OC4CCCc5ccccc54)cs3)CC2)c1` (centres unmarked) [Example 77], the lipophilicity (logP) under setting [1] was 4.05^[b]. Take `Cc1ccc(C)c(NC(=O)N2CCC(c3nc(C(=O)OC4CCCc5ccccc54)cs3)CC2)c1` (centres unmarked) [Example 78]: under setting [1], the logP was 4.09^[b]. Regarding `Cc1ccc(F)cc1NC(=O)N1CCC(c2nc(C(=O)OC3CCCc4ccccc43)cs2)CC1` (centres unmarked) [Example 79], under setting [1], the logP was 4.00^[b]. As to `Cc1ccc(F)c(NC(=O)N2CCC(c3nc(C(=O)OC4CCCc5ccccc54)cs3)CC2)c1` (centres unmarked) [Example 80], the logP under setting [1] is 4.08^[b].

In the case of `Cc1ccc(C)c(NC(=S)N2CCC(c3nc(C(=O)OC4CCCc5ccccc54)cs3)CC2)c1` (centres unmarked) [Example 81], the lipophilicity (logP) under setting [1] was 4.39^[b]. On to `COc1ccc(C)cc1NC(=O)N1CCC(c2nc(C(=O)OC3CCCc4ccccc43)cs2)CC1` (centres unmarked) [Example 82], for which, under setting [1], the logP is 4.33^[b].

On to `O=C(OC1CCCCC1)c1csc(C2CCN(C(=O)CC3CCCC3)CC2)n1` [Example 83], for which the logP under setting [1] is given as 4.15 and the lipophilicity (logP) under setting [2] stood at 4.12.

Turning to `O=C(OCc1ccccc1Br)c1csc(C2CCN(C(=O)Nc3cc(F)ccc3F)CC2)n1` [Example 84], the log partition coefficient (logP) is 3.79^[c]; 3.79^[b] under setting [1] and 3.79^[c]; 3.79^[b] under setting [2].
